# Measurements from patent US8426353B2, “Process for preparing polyurea microcapsules” (Firmenich SA, priority 2008, dated 2013).
# Like-named read-outs stand apart in the source and are kept apart here.
# Columns and labels:
# [1] = GC-MS analysis of perfume leaked out of the capsules during one month storage in concentrated liquid detergent; type: physicochemical; details: for Percentage of perfume having leaked out of the capsules upon one month storage, % In Concentrated Liquid Detergent at 22° C. / Percentage of perfume having leaked out of the capsules upon one month storage, % In Concentrated Liquid Detergent at 37° C.: perfume of Example 9 encapsulated per Example 2, capsules at 1.25% in Tide 2x Concentrated HE Free; for Percentage of perfume having leaked out of the capsules upon one month storage, % In Concentrated Liquid Detergent at 22° C. / Percentage of ingredient having leaked out of the capsules during one month storage, % In concentrated Liquid Detergent 22° C.: one month at 22° C.; for Percentage of perfume having leaked out of the capsules upon one month storage, % In Concentrated Liquid Detergent at 37° C. / Percentage of ingredient having leaked out of the capsules during one month storage, % In concentrated Liquid Detergent 37° C.: one month at 37° C.; for Percentage of ingredient having leaked out of the capsules during one month storage, % In concentrated Liquid Detergent 22° C. / Percentage of ingredient having leaked out of the capsules during one month storage, % In concentrated Liquid Detergent 37° C.: perfume of Example 6 encapsulated per Example 2, capsules at 1.25% in Tide 2x Concentrated HE Free
# From the text: The concentrated liquid detergent base was a commercially available Tide® 2× Concentrated HE Free of perfume & dye (trademark of Procter and Gamble, USA).
# The concentrated liquid detergent base was the commercially available Tide® 2× Concentrated HE Free of perfume & dye (trademark of Procter and Gamble, USA).
# [2] = LogP of the perfume ingredients
# [3] = GC-MS analysis of perfume leaked out of the capsules during one month storage in concentrated fabric softener; type: physicochemical; details: for Percentage of perfume having leaked out of the capsules upon one month storage, % In fabric softener at 22° C. / Percentage of perfume having leaked out of the capsules upon one month storage, % In fabric softener at 37° C.: perfume of Example 9 encapsulated per Example 2, capsules at 1.25%; for Percentage of perfume having leaked out of the capsules upon one month storage, % In fabric softener at 22° C.: one month at 22° C.; for Percentage of perfume having leaked out of the capsules upon one month storage, % In fabric softener at 37° C. / Percentage of ingredient having leaked out of the capsules during one month storage, % In fabric softener 37° C.: one month at 37° C.; for Percentage of ingredient having leaked out of the capsules during one month storage, % In fabric softener 37° C.: perfume of Example 6 encapsulated per Example 2, capsules at 1.25%
# Protocol: The concentrated fabric softener base was prepared by admixing the ingredients listed in Table 4, in the amounts indicated.
# [4] = ingredients of the perfume of Example 6 (Table 1)
# [5] = ingredients of the perfume of Example 9 (Table 9)
Compound,"Percentage of perfume having leaked out of the capsules upon one month storage, % In Concentrated Liquid Detergent at 22° C. [1] [%]","Percentage of perfume having leaked out of the capsules upon one month storage, % In Concentrated Liquid Detergent at 37° C. [1] [%]",LogP [2],"Percentage of perfume having leaked out of the capsules upon one month storage, % In fabric softener at 22° C. [3] [%]","Percentage of perfume having leaked out of the capsules upon one month storage, % In fabric softener at 37° C. [3] [%]","Percentage of ingredient having leaked out of the capsules during one month storage, % In concentrated Liquid Detergent 22° C. [1] [%]","Percentage of ingredient having leaked out of the capsules during one month storage, % In concentrated Liquid Detergent 37° C. [1] [%]","LogP [2, 4]","Percentage of ingredient having leaked out of the capsules during one month storage, % In fabric softener 37° C. [3] [%]","LogP [2, 5]"
CC(=O)O[C@@H]1C[C@H]2CC[C@]1(C)C2(C)C (racemic) [Isobornyl acetate],4,21,3.86,4,12,,,,,
"CC12CCC(CC1)C(C)(C)O2 [1,8-Cineole]",,,,,,2,21,3.13,11,
CC(C)=CCCC1=CCC(C)(C=O)CC1 (stereo not drawn) [1-Methyl-4-(4-methyl-3-pentenyl)-3-cyclohexene-1-carbaldehyde],,,5.19,,,2,20,,1,
"CC1=CC(C)C(C=O)CC1 (stereo not drawn) [2,4-Dimethyl-3-cyclohexene-1-carbaldehyde]",20,70,,20,40,,,,,
C=CCOC(=O)CCCCCC [Allyl heptanoate],46,100,3.67,46,98,,,,,
"CC1(C)CCCC2(C)C1CCC1(C)OCCC12 (stereo not drawn) [Cetalox ®, dodecahydro-3a,6,6,9a-tetramethyl-naphtho[2,1-b]furan]",,,,,,0,4,,3,
"C=CCOC(=O)COC1CCCCC1 [Cyclogalbanate, Allyl (cyclohexyloxy)-acetate]",15,,,15,82,,,,,
O=C(OC1CCCCC1)c1ccccc1O [Cyclohexyl salicylate],,,4.87,,,1,25,,7,
CC(=O)OC(C)(C)C1CCC(C)CC1 (stereo not drawn) [Dihydroterpenyl acetate],2,16,,2,0,1,14,4.42,4,4.42
CC1CCC(C(C)(C)O)CC1 (stereo not drawn) [Dihydroterpineol],13,,,13,85,,,,,3.42
CCCC(C)C(=O)OCC (stereo not drawn) [Ethyl 2-methyl-pentanoate],48,99,,48,99,,,,,2.76
CC(=O)OC/C=C(\C)CCC=C(C)C [Geranyl acetate],10,77,4.48,10,53,,,,,
"O=C1CCCCCCCCC/C=C/CCCO1 [Habanolide ®, pentadecenolide]",0,0,,0,0,0,0,,1,
CCCCCCC(C=O)=Cc1ccccc1 [Hexyl cinnamic aldehyde],2,46,4.82,2,18,,,,,
"CC(=O)C1(C)CC2=C(CCCC2(C)C)CC1C (stereo not drawn) [Iso E super ®, 1-(octahydro-2,3,8,8-tetramethyl-2-naphtalenyl)-1-ethanone]",2,9,,2,4,1,4,4.71,4,4.71
CCCCCCCCCCCCCC(=O)OC(C)C [Isopropyl myristate],,,7.17,,,,,,,
CC1(O)CCC2C(=CCCC2(C)C)C1 (stereo not drawn) [Octalynol],,,,,,,,4.28,3,
"CC(=O)OC1CCCCC1C(C)(C)C (stereo not drawn) [Verdox ®, 2-Tert-butyl-1-cyclohexyl acetate]",3,17,,3,8,,,,,
CC(=O)/C=C/C1=C(C)CCCC1(C)C [β-Ionone],3,27,,3,13,1,14,,5,
